Among the data in PubChem BioAssay (NCI) are TGI and GI50 values, retold here.

Values joined by “and” are separate entries in the source; they are usually repeats but may differ in a detail not shown here. Equal entries are not always repeated.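 Tested at 5 concentrations; 48 h exposure; 96-well plates; endpoints linearly interpolated, else capped at highest concentration. GI50 is the concentration that inhibits growth by half. TGI denotes the concentration required for complete inhibition of growth.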

Among the test systems are SF-268 CNS; BT-549 breast; NCI-H23 lung; EKVX NSCLC; MALME-3M melanoma; SF-539 CNS.
Holding throughout (assay): NCI tumour cell line growth inhibition, 48 h

For `COc1cc(-c2oc3ccccc3c(=O)c2O)cc(OC)c1OC`, the TGI in the test with SF-268 CNS, in the test on BT-549 breast, in the test with NCI-H23 lung, in the test on EKVX NSCLC, with MALME-3M melanoma and in the test on SF-539 CNS was greater than 100 µM in each case.
Take `Cc1cccc(NC(=O)c2sc3nc4c(cc3c2N)CCCC4)c1C`: the GI50 is 1.03 µM in the test on SF-268 CNS; 2.51 µM in the test on BT-549 breast; 0.519 µM in the test with NCI-H23 lung; 0.708 µM in the test with EKVX NSCLC; 0.614 µM in the test on MALME-3M melanoma; 0.272 µM in the test with SF-539 CNS. For the same molecule, the TGI in the test on SF-268 CNS was greater than 100 µM; in the test on BT-549 breast, greater than 100 µM; in the test on NCI-H23 lung, greater than 100 µM; with EKVX NSCLC, greater than 100 µM; with MALME-3M melanoma it was greater than 100 µM; with SF-539 CNS, 1.2 µM.
Turning to `S=C(N/N=C/c1cc(Cl)cc(Cl)c1)NC12CC3CC(CC(C3)C1)C2`, the GI50 is 6.18 µM with SF-268 CNS; greater than 100 µM with BT-549 breast; 10.6 µM with NCI-H23 lung; 5.12 µM with MALME-3M melanoma; 8.85 µM in the test on SF-539 CNS. The TGI in the test on SF-268 CNS was greater than 100 µM; in the test with BT-549 breast it was greater than 100 µM; in the test with NCI-H23 lung, greater than 100 µM; in the test on MALME-3M melanoma, 50.7 µM; with SF-539 CNS, greater than 100 µM.
Consider `Cc1ccc(C(=O)Nc2ccc(CN3CCN(C)CC3)c(C(F)(F)F)c2)cc1C#Cc1cnc(N)c2ccc(F)cc12`, for which the GI50 with SF-268 CNS is 0.259 µM; with BT-549 breast it was 1.31 µM; in the test on NCI-H23 lung, 0.584 µM; in the test on EKVX NSCLC, 1.06 µM; in the test with MALME-3M melanoma, 0.141 µM; in the test on SF-539 CNS, 0.527 µM. Further, the TGI with SF-268 CNS was 1.88 µM; with BT-549 breast, 4.33 µM; in the test on NCI-H23 lung, 2.24 µM; with EKVX NSCLC, 4.73 µM; in the test with MALME-3M melanoma it was 0.597 µM; with SF-539 CNS, 1.24 µM.
With `COC(=O)C1=C(OC(=O)c2ccc(Cl)cc2)C(C(=O)OC)[C@@]2(O)[C@@H](C(=O)OC)C(c3ccccc3C(F)(F)F)C[C@@H]1[C@@H]2C(=O)OC` (some centres not stated), the GI50 in the test with SF-268 CNS is 11 µM; in the test on BT-549 breast it was 4.16 µM; in the test with NCI-H23 lung, 3.47 µM; in the test with EKVX NSCLC, 8.1 µM; in the test on SF-539 CNS it was 5.13 µM. For the same molecule, the TGI in the test with SF-268 CNS is greater than 100 µM; in the test on BT-549 breast it was 63.6 µM; with NCI-H23 lung it was 16.8 µM; in the test with EKVX NSCLC, greater than 100 µM; in the test on SF-539 CNS it was greater than 100 µM.
Turning to `COc1ccc(Cl)cc1Nc1nc(C(F)(F)F)ccc1C(=O)NN`, the GI50 is 1.38 µM in the test with SF-268 CNS; 2.13 µM in the test with BT-549 breast; 9.11 µM in the test on NCI-H23 lung; 2.93 µM in the test with EKVX NSCLC; 3.21 µM in the test with MALME-3M melanoma; 6.52 µM in the test on SF-539 CNS. Further, the TGI in the test with SF-268 CNS was greater than 100 µM; in the test on BT-549 breast, greater than 100 µM; in the test on NCI-H23 lung it was greater than 49.5 µM; with EKVX NSCLC, greater than 100 µM; with MALME-3M melanoma, 30.2 µM; in the test with SF-539 CNS, greater than 30.7 µM.
With `CC[C@H](C)[C@H](NC(=O)c1cnccn1)C(=O)N(C)[C@H](C[C@@H](OC(C)=O)c1nc(C(=O)N[C@@H](Cc2ccccc2)C[C@H](C)C(=O)OC)cs1)C(C)C`, the GI50 was 1.66 µM with SF-268 CNS; 1.69 µM in the test on NCI-H23 lung; 1.75 µM in the test on EKVX NSCLC; 3.3 µM in the test with MALME-3M melanoma; 0.779 µM in the test with SF-539 CNS. Besides, the TGI in the test on SF-268 CNS was greater than 33.3 µM; in the test with NCI-H23 lung, greater than 33.3 µM; in the test on EKVX NSCLC, greater than 33.3 µM; with MALME-3M melanoma, greater than 33.3 µM; with SF-539 CNS, 2.09 µM.
With `C/C(=N\O)c1ccc(Nc2cc(-n3nnc4ccccc43)nc3ccccc23)cc1`, the GI50 in the test on SF-268 CNS is 9.97 µM; in the test with BT-549 breast, 3.77 µM; in the test on NCI-H23 lung, 8.98 µM; with EKVX NSCLC, 6.97 µM; with MALME-3M melanoma it was 11.2 µM; in the test with SF-539 CNS, 19 µM. Moreover, the TGI in the test with SF-268 CNS is greater than 41.9 µM; in the test on BT-549 breast, 14.8 µM; with NCI-H23 lung, greater than 29.5 µM; in the test on EKVX NSCLC it was greater than 28.9 µM; in the test on MALME-3M melanoma it was 36.1 µM; with SF-539 CNS, 44.7 µM.
As for `CC(=O)c1cccc(N(/C=C/C(=O)C(F)(F)F)CC(=O)c2ccc(Cl)cc2)c1`, the GI50 in the test on SF-268 CNS, with BT-549 breast, in the test with NCI-H23 lung, in the test on EKVX NSCLC, in the test with MALME-3M melanoma and in the test on SF-539 CNS was greater than 100 µM in each case. The TGI with SF-268 CNS, in the test on BT-549 breast, with NCI-H23 lung, with EKVX NSCLC, in the test on MALME-3M melanoma and in the test with SF-539 CNS was greater than 100 µM in each case.
As to `CNC(=O)Nc1ccc(-c2nc(N3CCOCC3)nc3c2cnn3C2CCOCC2)cc1`, the GI50 with SF-268 CNS is 0.284 µM; in the test on BT-549 breast it was 0.132 µM; in the test on NCI-H23 lung it was 0.267 µM; with EKVX NSCLC, 0.18 µM; in the test with MALME-3M melanoma, 0.0509 µM; in the test on SF-539 CNS, 0.205 µM. Besides, the TGI with SF-268 CNS was greater than 51.3 µM; in the test with BT-549 breast, 2.08 µM; in the test on NCI-H23 lung, greater than 100 µM; in the test with EKVX NSCLC it was 2.42 µM; in the test on MALME-3M melanoma it was 0.44 µM; in the test with SF-539 CNS, 1.36 µM.
Turning to `Cc1cc(N(CCNc2ccnc3cc(Cl)ccc23)Cc2ccc3c(c2)OCO3)nc(N2CCN(C)CC2)n1`, the GI50 in the test on SF-268 CNS was 2.42 µM; in the test on BT-549 breast it was 2.17 µM; in the test with NCI-H23 lung, 6.39 µM; with EKVX NSCLC it was 4.4 µM; in the test with MALME-3M melanoma, 1.77 µM; with SF-539 CNS, 1.78 µM. For the same molecule, the TGI in the test on SF-268 CNS was found to be 7.89 µM; with BT-549 breast, 5.54 µM; in the test with NCI-H23 lung, 22.3 µM; with EKVX NSCLC it was 18.9 µM; with MALME-3M melanoma it was 3.36 µM; with SF-539 CNS it was 3.33 µM.
Regarding `Clc1ccc(COC(Cn2ccnc2)c2ccc(Cl)cc2Cl)cc1` (configuration not stated), the GI50 was 3.42 µM in the test with SF-268 CNS; 2.48 µM with BT-549 breast; 2.08 µM in the test with NCI-H23 lung; 2.91 µM in the test on EKVX NSCLC; 2.22 µM with MALME-3M melanoma; 4.6 µM in the test on SF-539 CNS. Besides, the TGI was 18.3 µM and 36.1 µM and 36.7 µM in the test with SF-268 CNS; 6.63 µM and 35.3 µM and 30.4 µM in the test with BT-549 breast; 10.2 µM and 28.7 µM and 29.7 µM in the test with NCI-H23 lung; 13.9 µM and 25.5 µM and 27.5 µM in the test on EKVX NSCLC; 6.36 µM and 28.2 µM and 31.1 µM with MALME-3M melanoma; 16.4 µM and 38.3 µM and 29.4 µM in the test with SF-539 CNS.
